Test results reported in patent publication US20100075854A1, “HERBICIDE COMBINATION COMPRISING DIMETHOSXYTRIAZINYL-SUBSTITUTED DIFLUOROMETHANESULFONYLANILIDES” (Bayer CropScience AG, priority 2008, published 2010).
Like-named read-outs stand apart in the source and are kept apart here.

Key:
Assay in all cases: Post-emergence action, greenhouse pot test, visual scoring
Format in all cases: in vivo
Veronica persica (VERPE) = conditions: read-out: % activity found; for inhibition at 10 g/ha: 10 g of ai/ha
Experimental: (§1) Seeds or rhizome pieces of mono- and dicotyledonous harmful and useful plants were placed in peat pots (diameter 4 cm) filled with sandy loam and then covered with soil. The pots were kept in a greenhouse under optimum conditions. In addition, harmful plants encountered in paddy rice cultivation were cultivated in pots with a water level 2 cm above the soil surface.
(§2) About three weeks after the start of the cultivation, the test plants were treated at the 2- to 3-leaf stage. The herbicides, formulated as powder or liquid concentrates, were, either alone or in the combinations according to the invention, sprayed in various dosages on to the green parts of the plants using an application rate of 600 l of water/ha (converted). For further cultivation of the plants, the pots were then again kept under optimum conditions in a greenhouse.
(§3) The visual scoring of the herbicidal effects was carried out in intervals up to 21 days after the treatment. Scoring was carried out in percent in comparison to the untreated control plants. 0%=no herbicidal activity, 100%=complete herbicidal activity=complete kill.
(§4) The percentages from the treatments with the herbicides alone (=individual application) and with the combinations according to the invention (=mixtures) were employed to calculate interactions using the method of Colby. When the observed efficacies of the mixtures exceed the formal sum of the values of the tests with individual applications, they also exceed the expected value according to Colby, which is calculated using the formula below (cf. S. R. Colby; in Weeds 15 (1967) pp. 20 to 22):
(§5) • A, B=activity of components A and B in percent at a dosage of a and b g of ai/ha (=gramm of active substance per hectare), respectively. • E=expected value in % at a dosage of a+b g of ai/ha.

[1] = tested on: Pharbitis purpurea (PHBPU); conditions: Ipomoea purpurea, read-out: % activity found; for inhibition at 10 g/ha / inhibition at 30 g/ha: PHBPU; for inhibition at 10 g/ha: 10 g of ai/ha; for inhibition at 30 g/ha: 30 g of ai/ha
Experimental: as §1, §2, §3, §4, §5

[2] = tested on: Amaranthus retroflexus (AMARE); conditions: read-out: % activity found; for inhibition at 10 g/ha / inhibition at 30 g/ha: AMARE; for inhibition at 10 g/ha: 10 g of ai/ha; for inhibition at 30 g/ha: 30 g of ai/ha
Experimental: as §1, §2, §3, §4, §5

[3] = tested on: Fallopia (ex Polygonum) convolvulus (POLCO); conditions: read-out: % activity found
Experimental: as §1, §2, §3, §4, §5

[4] = tested on: Abuthilon theophrasti (ABUTH); conditions: Abutilon theophrasti, read-out: % activity found; for inhibition at 10 g/ha / inhibition at 30 g/ha: ABUTH; for inhibition at 10 g/ha: 10 g of ai/ha; for inhibition at 30 g/ha: 30 g of ai/ha
Experimental: as §1, §2, §3, §4, §5

Viola tricolor (VIOTR) = conditions: read-out: % activity found; for inhibition at 10 g/ha / inhibition at 30 g/ha: VIOTR; for inhibition at 10 g/ha: 10 g of ai/ha; for inhibition at 30 g/ha: 30 g of ai/ha
Experimental: as §1, §2, §3, §4, §5

Zea mays (ZEAMX) = conditions: read-out: % activity found; for inhibition at 10 g/ha: 10 g of ai/ha
Experimental: as §1, §2, §3, §4, §5

Avena fatua (AVEFA) = conditions: read-out: % activity found
Experimental: as §1, §2, §3, §4, §5

Oryza sativa (ORYSA) = conditions: read-out: % activity found
Experimental: as §1, §2, §3, §4, §5

[5] = tested on: Alopecurus myosuroides (ALOMY); conditions: 504 h, read-out: % activity found
Experimental: as §1, §2, §3, §4, §5

[6] = tested on: Matricaria inodora (MATIN); conditions: Tripleurospermum inodorum, read-out: % activity found; for inhibition at 30 g/ha / inhibition at 10 g/ha: MATIN; for inhibition at 30 g/ha: 30 g of ai/ha; for inhibition at 10 g/ha: 10 g of ai/ha
Experimental: as §1, §2, §3, §4, §5

[7] = tested on: Cyperus esculentus (CYPES); conditions: for (7) % activity found: CYPES, 21 DAT
Experimental: as §1, §2, §3, §4, §5

[8] = tested on: Triticum aestivum (TRZAS); conditions: read-out: % activity found; for inhibition at 30 g/ha: 30 g of ai/ha
Experimental: as §1, §2, §3, §4, §5

[9] = tested on: Lolium multiflorum (LOLMU); conditions: read-out: % activity found; for inhibition at 30 g/ha: 30 g of ai/ha; for inhibition at 10 g/ha: 10 g of ai/ha
Experimental: as §1, §2, §3, §4, §5

[10] = Cyperus esculentus, 504 h, read-out: % activity found

Which results are given for `C[C@@H](Oc1ccc(Oc2ccc(C#N)cc2F)cc1)C(=O)O` [B7-2, (2R)-2-[4-(4-cyano-2-fluorophenoxy)phenoxy]propanoic acid]?
inhibition at 75 g/ha (Veronica persica (VERPE); 240 h): 0%; inhibition at 25 g/ha (Veronica persica (VERPE); 504 h): 0%; inhibition at 75 g/ha (Veronica persica (VERPE); 504 h): 0%; inhibition at 25 g/ha ([1]; 240 h): 0%; inhibition at 75 g/ha ([1]; 240 h): 20%; inhibition at 25 g/ha ([1]; 504 h): 0%; inhibition at 75 g/ha ([1]; 504 h): 0%; inhibition at 25 g/ha ([2]; 240 h): 0%; inhibition at 25 g/ha ([2]; 504 h): 0%; inhibition at 75 g/ha ([2]; 504 h): 0%; inhibition at 25 g/ha ([3]; 240 h): 0%; inhibition at 75 g/ha ([3]; 240 h): 0%; inhibition at 25 g/ha ([3]; 504 h): 0%; inhibition at 75 g/ha ([3]; 504 h): 0%; inhibition at 25 g/ha ([4]; 504 h): 0%; inhibition at 75 g/ha ([4]; 504 h): 0%; inhibition at 75 g/ha (Viola tricolor (VIOTR); 240 h): 0%; inhibition at 25 g/ha (Viola tricolor (VIOTR); 504 h): 0%; inhibition at 75 g/ha (Viola tricolor (VIOTR); 504 h): 0%; inhibition at 25 g/ha (Zea mays (ZEAMX); 240 h): 70%; inhibition at 25 g/ha (Zea mays (ZEAMX); 504 h): 70%; inhibition at 25 g/ha (Avena fatua (AVEFA); 504 h): 0%; inhibition at 25 g/ha (Oryza sativa (ORYSA); 504 h): 10%; inhibition at 75 g/ha (Oryza sativa (ORYSA); 504 h): 20%; inhibition at 25 g/ha [5]: 0%; inhibition at 75 g/ha [5]: 20%; inhibition at 25 g/ha ([6]; 504 h): 0%; inhibition at 75 g/ha ([6]; 504 h): 0%; inhibition at 25 g/ha [7, 10]: 0%; inhibition at 75 g/ha [7, 10]: 0%

How did the inhibition at 30 g/ha ([8]; 504 h, TRZAS, 21 DAT) turn out when `CCOC(=O)C(C)OC(=O)c1cc(Oc2ccc(C(F)(F)F)cc2Cl)ccc1[N+](=O)[O-]` (racemic) [B1-5, (±)-2-ethoxy-1-methyl-2-oxoethyl 5-[2-chloro-4-(trifluoromethyl)phenoxy]-2-nitrobenzoate] was run?
The inhibition at 30 g/ha was 20%.

And the inhibition at 30 g/ha (Oryza sativa (ORYSA); 240 h, ORYSA, 10 DAT, 30 g of ai/ha)?
The inhibition at 30 g/ha was 40%.

And the inhibition at 30 g/ha ([6]; 504 h, 21 DAT)?
The inhibition at 30 g/ha was 80%.

What about the inhibition at 30 g/ha ([9]; 504 h, 21 DAT) of the same molecule?
The inhibition at 30 g/ha was 20%.

What does the source list for `O=C(O)COc1ccc(Cl)cc1Cl` [B5-2, (2,4-dichlorophenoxy)acetic acid]?
inhibition at 210 g/ha ([8]; 240 h): 0%; inhibition at 210 g/ha (Viola tricolor (VIOTR); 504 h): 60%; inhibition at 70 g/ha (Zea mays (ZEAMX); 240 h): 0%; inhibition at 210 g/ha (Zea mays (ZEAMX); 240 h): 40%; inhibition at 70 g/ha (Zea mays (ZEAMX); 504 h): 0%; inhibition at 70 g/ha (Avena fatua (AVEFA); 504 h): 0%; inhibition at 210 g/ha (Avena fatua (AVEFA); 504 h): 0%; inhibition at 70 g/ha [5]: 0%; inhibition at 210 g/ha [5]: 0%; inhibition at 70 g/ha [7, 10]: 0%

What does the source list for `C[C@@H](Oc1ccc(Oc2nc3ccc(Cl)cc3o2)cc1)C(=O)O` [B7-4, (R)-2-[4-(6-chlorobenzoxazol-2-yloxy)phenoxy]propionic acid]?
inhibition at 10 g/ha (Veronica persica (VERPE); 240 h, VERPE, 10 DAT): 0%; inhibition at 10 g/ha (Veronica persica (VERPE); 504 h, VERPE, 21 DAT): 0%; inhibition at 30 g/ha (Veronica persica (VERPE); 504 h, VERPE, 21 DAT, 30 g of ai/ha): 0%; inhibition at 10 g/ha ([1]; 240 h, 10 DAT): 0%; inhibition at 30 g/ha ([1]; 240 h, 10 DAT): 0%; inhibition at 10 g/ha ([1]; 504 h, 21 DAT): 0%; inhibition at 30 g/ha ([1]; 504 h, 21 DAT): 0%; inhibition at 10 g/ha ([2]; 240 h, 10 DAT): 0%; inhibition at 30 g/ha ([2]; 240 h, 10 DAT): 0%; inhibition at 10 g/ha ([2]; 504 h, 21 DAT): 0%; inhibition at 30 g/ha ([2]; 504 h, 21 DAT): 0%; inhibition at 10 g/ha ([3]; 504 h, POLCO, 21 DAT, 10 g of ai/ha): 0%; inhibition at 30 g/ha ([3]; 504 h, POLCO, 21 DAT, 30 g of ai/ha): 0%; inhibition at 10 g/ha ([8]; 240 h, TRZAS, 10 DAT, 10 g of ai/ha): 0%; inhibition at 30 g/ha ([8]; 240 h, TRZAS, 10 DAT): 0%; inhibition at 10 g/ha ([4]; 240 h, 10 DAT): 0%; inhibition at 30 g/ha ([4]; 240 h, 10 DAT): 0%; inhibition at 10 g/ha ([4]; 504 h, 21 DAT): 0%; inhibition at 30 g/ha ([4]; 504 h, 21 DAT): 0%; inhibition at 10 g/ha (Viola tricolor (VIOTR); 240 h, 10 DAT): 0%; inhibition at 30 g/ha (Viola tricolor (VIOTR); 240 h, 10 DAT): 0%; inhibition at 10 g/ha (Viola tricolor (VIOTR); 504 h, 21 DAT): 0%; inhibition at 30 g/ha (Viola tricolor (VIOTR); 504 h, 21 DAT): 0%; inhibition at 10 g/ha (Zea mays (ZEAMX); 240 h, ZEAMX, 10 DAT): 30%; inhibition at 30 g/ha (Zea mays (ZEAMX); 240 h, ZEAMX, 10 DAT, 30 g of ai/ha): 70%; inhibition at 10 g/ha (Zea mays (ZEAMX); 504 h, ZEAMX, 21 DAT): 20%; inhibition at 10 g/ha (Avena fatua (AVEFA); 240 h, AVEFA, 10 DAT, 10 g of ai/ha): 0%; inhibition at 30 g/ha (Avena fatua (AVEFA); 504 h, AVEFA, 21 DAT, 30 g of ai/ha): 0%; inhibition at 10 g/ha ([5]; ALOMY, 21 DAT, 10 g of ai/ha): 30%; inhibition at 30 g/ha ([5]; ALOMY, 21 DAT, 30 g of ai/ha): 30%; inhibition at 10 g/ha ([6]; 240 h, 10 DAT): 0%; inhibition at 30 g/ha ([6]; 240 h, 10 DAT): 0%; inhibition at 10 g/ha ([6]; 504 h, 21 DAT): 0%; inhibition at 30 g/ha ([6]; 504 h, 21 DAT): 0%; inhibition at 10 g/ha ([9]; 240 h, 10 DAT): 20%; inhibition at 10 g/ha ([9]; 504 h, 21 DAT): 0%; inhibition at 30 g/ha ([9]; 504 h, 21 DAT): 0%; (7) % activity found ([7]; (6) dose of B7-4 10, alone): 0%; (7) % activity found ([7]; (6) dose of B7-4 30, alone): 0%
